Data taken from PubChem BioAssay (NCI).
Several values for one entry are separate records, joined by “and”; a condition that tells them apart may be missing. Equal entries are not always repeated.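 Growth conditions: 96-well plates. Treatment: test compound, 48 hours, 5 concentrations. Analysis: linear interpolation between bracketing concentrations; unreached endpoints set to highest concentration. Here, GI50 denotes the concentration required for 50% inhibition of growth. The concentration for full growth arrest is given as TGI.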

Legend:
Experiment in all cases: DTP human tumour cell line panel, 48 h
NCI-H460 lung = test system: NCI-H460 lung
UO-31 renal = test system: UO-31 renal
SK-OV-3 ovarian = test system: SK-OV-3 ovarian
A549 NSCLC = test system: A549 NSCLC
KM12 colon = test system: KM12 colon
MALME-3M melanoma = test system: MALME-3M melanoma
BT-549 breast = test system: BT-549 breast
SR leukemia = test system: SR leukemia
HCT-116 colon = test system: HCT-116 colon
PC-3 prostate = test system: PC-3 prostate

Row | Structure (SMILES) | GI50 (NCI-H460 lung) | TGI (NCI-H460 lung) | GI50 (UO-31 renal) | TGI (UO-31 renal) | GI50 (SK-OV-3 ovarian) | TGI (SK-OV-3 ovarian) | GI50 (A549 NSCLC) | TGI (A549 NSCLC) | GI50 (KM12 colon) | TGI (KM12 colon) | GI50 (MALME-3M melanoma) | TGI (MALME-3M melanoma) | GI50 (BT-549 breast) | TGI (BT-549 breast) | GI50 (SR leukemia) [µM] | TGI (SR leukemia) [µM] | GI50 (HCT-116 colon) | TGI (HCT-116 colon) | GI50 (PC-3 prostate) | TGI (PC-3 prostate)
1 | Cc1ccc2[nH]c3c(c2c1)N=c1ccccc1=NO3 | 45.9 µM | > 100 µM | 42.2 µM | > 100 µM | 29.9 µM | > 100 µM | > 100 µM | > 100 µM | 34.8 µM | > 100 µM | 20 µM | 54.1 µM | 14.2 µM | 51.6 µM | 33.4 | > 100 | 83.8 µM | > 100 µM | 57 µM | > 100 µM
2 | CN(C)c1ccc(C(=N)c2ccc(N(C)C)cc2)cc1 | 3.01 µM and 3.54 µM | 12.6 µM and 20 µM | 3.65 µM and 5.86 µM | 32 µM and > 100 µM | 3.55 µM and 2.92 µM | 16.6 µM and 22.3 µM | 5.1 µM and 3.95 µM | 36.7 µM and > 100 µM | 1.58 µM and 1.65 µM | 16.2 µM and 21.5 µM | 3.04 µM and 9.7 µM | 28.8 µM and 62.2 µM | 3.77 µM and 5.1 µM | 28.9 µM and 29.2 µM | 0.736 | 5.3 | 2.41 µM and 3.46 µM | 14.2 µM and 41 µM | 3.75 µM and 3.74 µM | 36.2 µM and > 100 µM
3 | COc1cc(OC)c(/C=C/C(=O)c2ccc(Nc3ncnc4ccccc34)cc2)c(OC)c1 | 0.394 µM | 2.01 µM | 1.44 µM | 3.99 µM | 1.02 µM | 2.74 µM | 0.665 µM | 3.76 µM | 0.51 µM | > 43.9 µM | 0.799 µM | 2.65 µM | 1.04 µM | 3.62 µM | 0.142 | 1.1 | 0.45 µM | 2.04 µM | 0.707 µM | 8.33 µM
4 | c1ccc2cc(Cn3cc[n+](Cc4ccc5ccccc5c4)c3)ccc2c1 | 1.27 µM | 10.4 µM | 12.1 µM | 28.8 µM | 2.15 µM | 11.1 µM | 7.97 µM | 22.9 µM | 1.15 µM | 2.62 µM | 0.413 µM | 2.49 µM | 1.18 µM | 3.15 µM | 1.03 | 3.42 | 1.97 µM | 12.3 µM | 0.535 µM | 5.6 µM
5 | O=C(O)C(Br)C(Br)C(=O)O (stereo not given) |  | > 100 µM |  | > 100 µM |  | > 100 µM |  | > 100 µM |  | > 100 µM |  | > 100 µM |  | > 100 µM |  | > 100 |  | > 100 µM |  | > 100 µM
6 | Nc1ncnc2c1c(-c1ccc(Oc3ccccc3)cc1)nn2C[C@H]1SSC[C@@H]1O | 0.0445 µM | 0.206 µM | 1.68 µM | 5.7 µM | 0.593 µM | 3.71 µM | 0.519 µM | 6.81 µM | 0.242 µM | 16.4 µM | 0.826 µM | 3.94 µM | 3.63 µM | 13.5 µM | 0.165 | 0.627 | 0.332 µM | 12.3 µM | 3.01 µM | 18.2 µM
7 | CCn1c(-c2c(Cl)cc(O)cc2Cl)cc2c(Cl)cc(O)cc21 |  | 18.4 µM |  | > 100 µM |  | 37.1 µM |  | 44.2 µM |  | 61 µM |  | 39.3 µM |  | 15.5 µM |  | > 100 |  | > 100 µM |  | > 100 µM
8 | Nc1ncn(C2OC(COP(=O)(O)O)C(O)C2O)c(=O)n1 (stereo not given) |  | > 100 µM |  | > 100 µM |  | > 100 µM |  | > 100 µM |  | > 100 µM |  | > 100 µM |  | > 100 µM |  | > 100 |  | > 100 µM |  | > 100 µM
9 | O=C1NC(O)c2ccccc2O1 (stereo not given) |  | > 100 µM |  | > 100 µM |  | > 100 µM |  | > 100 µM |  | > 100 µM |  | > 100 µM |  | > 100 µM |  | > 100 |  | > 100 µM |  | > 100 µM
10 | C=C1C(=O)O[C@H]2[C@H]1CC/C(Cn1cc(Cc3c[nH]c4ccccc34)nn1)=C\CC[C@@]1(C)O[C@@H]21 | 3.51 µM | 10.6 µM | 1.49 µM | 2.86 µM | 14.2 µM | 27.4 µM | 8.63 µM | 23.5 µM | 2.34 µM | 4.99 µM | 1.63 µM | 3.07 µM | 1.41 µM | 2.76 µM | 0.389 | 8.32 | 1.06 µM | 2.38 µM | 1.88 µM | 3.81 µM
11 | CCCCC[C@H]1CC=C2C(=O)C=C[C@@H]2CC=CCCCC(=O)O[C@@H](CCCCC)CC=C2C(=O)C=C[C@@H]2CC=CCCCC(=O)O[C@@H](CCCCC)CC=C2C(=O)C=C[C@@H]2CC=CCCCC(=O)O1 | 0.488 µM | 2.87 µM | 0.457 µM | 1.63 µM | 1.62 µM | > 8.75 µM | 0.529 µM | 2.12 µM | 0.31 µM | 1.22 µM | 0.295 µM | > 8.75 µM | 0.241 µM | 0.772 µM | 0.229 | 1.34 | 0.221 µM | 0.906 µM | 0.342 µM | 1.5 µM
12 | CC/C=C\C[C@H](O)C/C=C1/C(=O)C=C[C@@H]1C/C=C\CCCC(=O)OC(C)C | 1.68 µM | 3.97 µM | 1.84 µM | 3.84 µM | 5.01 µM | 16.1 µM | 2.48 µM | 5.88 µM | 1.36 µM | 3.08 µM | 1.64 µM | 3.75 µM | 1.25 µM | 3.51 µM | 0.896 | 5.01 | 0.245 µM | 0.64 µM | 1.58 µM | 3.49 µM
13 | Oc1[nH]c(N=C2N=c3ccccc3=N2)c2ccccc12 | 3.01 µM | 21 µM | 4.58 µM | 18.6 µM | 12.1 µM | 27.7 µM | 8.67 µM | 41.1 µM | 11.5 µM | 42.9 µM | 9.69 µM | 37.6 µM | 16.7 µM | 54.5 µM | 5.46 | 41.6 | 7.3 µM | 29.5 µM | 6.34 µM | 73.8 µM
14 | CC(CN1CC(=O)NC(=O)C1)N1CC(=O)NC(=O)C1 (stereo not given) |  | > 622 µM |  | > 750 µM |  | > 672 µM |  | > 750 µM |  | > 729 µM |  | 355 µM |  | > 750 µM |  | > 750 |  | > 750 µM |  | > 750 µM
